Data reported in PubChem BioAssay AID1552 (Sanford-Burnham Center for Chemical Genomics, 2009).
Activity calls are given as the source filed them. The rule behind the calls is not given here.

What follows are compounds tested against Ubiquitin-conjugating enzyme E2 N (Homo sapiens) (UniProt P61088) (assay: NMR detection of UBE2N ligand binding – biophysical, purified protein (AID 1552)). Conditions: NMR binding to purified UBE2N.
Chain of Ubiquitin-conjugating enzyme E2 N (Homo sapiens) (P61088 whole entry, looked up): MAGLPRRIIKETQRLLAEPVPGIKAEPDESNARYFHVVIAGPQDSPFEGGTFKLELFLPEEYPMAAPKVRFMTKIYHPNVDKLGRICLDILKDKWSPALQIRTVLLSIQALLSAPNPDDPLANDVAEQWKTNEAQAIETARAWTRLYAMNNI
In the case of `S=c1[nH]ncn1-c1ccccc1`, the Kd is reported as > 4 mM (inactive). With `NC(=O)COc1cccc2cccnc12` the Kd was > 4 mM (inactive). With `Cn1nc(C(C)(C)C)cc1N` the Kd was > 4 mM (inactive). `COC(=O)CCSCC(=O)Nc1nccs1` was tested, and the Kd was > 4 mM (inactive). With `Cc1occc1C(=O)NCc1ccncc1` the Kd was > 4 mM (inactive). For `O=C(O)/C=C/c1ccc(O)c(O)c1`, the Kd was > 4 mM (inactive). In the case of `NC(=O)CSc1ccc2nnc(-c3ccccc3)n2n1`, the Kd is reported as > 4 mM (inactive). `O=C1CS/C(=N/S(=O)(=O)c2ccccc2)N1` was tested, and the Kd was > 4 mM (inactive). For `Nc1ccc(Cc2ccncc2)cc1`, the Kd was > 4 mM (inactive). With `O=C(O)c1cc(F)cc2c1OCOC2` the Kd was > 4 mM (inactive). `CC1(C)C(=O)C=C[C@@]2(C)C1CC(=O)[C@]1(C)C2CC[C@@]2(C)[C@H](c3ccoc3)OC(=O)[C@H]3O[C@]321` (stereo partly drawn) was tested, and the Kd was > 4 mM (inactive). `CN1CCC(NC(=S)NC2CC2)CC1` was tested, and the Kd was > 4 mM (inactive). With `Cc1ccc(CN2C3=NC(=O)CN3c3ccccc32)cc1` the Kd was > 4 mM (inactive). With `N/C(=N/S(=O)(=O)c1cccs1)c1ccccc1` the Kd was > 4 mM (inactive). `Nc1nc(-c2ccncc2)cs1` was tested, and the Kd was > 4 mM (inactive). `CC(=O)Nc1ccc(C(=O)NC2CCSC2=O)cc1` (stereo not drawn) was tested, and the Kd was > 4 mM (inactive). For `Cc1c(C(=O)Nn2cnnc2)oc2ccccc12`, the Kd was > 4 mM (inactive). In the case of `O=c1[nH]c(=O)c2[nH]cnc2[nH]1`, the Kd is reported as > 4 mM (inactive). With `CC(=O)Oc1c(-c2ccccc2)oc2c(CC=C(C)C)c3c(c(OC(C)=O)c2c1=O)C=CC(C)(C)O3` the Kd was > 4 mM (inactive). `O=C1C2C3CCC(O3)C2C(=O)N1c1cccc(F)c1` (stereo not drawn) was tested, and the Kd was > 4 mM (inactive). In the case of `CC(C)Oc1ccc(C2CC(=O)NNC2=O)cc1` (stereo not drawn), the Kd is reported as > 4 mM (inactive). `c1ccc2nc3c(nc2c1)CCc1nonc1-3` was tested, and the Kd was > 4 mM (inactive). With `c1ccc2c(c1)ncn2CCn1cnc2ccccc21` the Kd was > 4 mM (inactive). With `O=C(O)CN1CCN(C2CCCC2)CC1` the Kd was > 4 mM (inactive). In the case of `CCNC(=O)CC[C@H](N)C(=O)O`, the Kd is reported as > 4 mM (inactive). For `Cc1nc2ccc(C(=O)O)cc2nc1C`, the Kd was > 4 mM (inactive). With `COc1cc(C/C=C/c2ccccc2)c(OC)cc1O` the Kd was > 4 mM (inactive). In the case of `O=C(O)CSCc1ccc(Cl)cc1`, the Kd is reported as > 4 mM (inactive). In the case of `CC(=O)Nc1ccc(NC(C)=O)cc1`, the Kd is reported as > 4 mM (inactive). `CC1(C)C2C[C@@H](O)[C@]3(C)C(CC[C@@]4(C)[C@H](c5ccoc5)OC(=O)[C@H]5O[C@]543)[C@@]2(C)[C@@H](O)C[C@H]1O` (stereo partly drawn) was tested, and the Kd was > 4 mM (inactive). `O=C1NC(=S)N/C1=C\c1ccccc1` was tested, and the Kd was > 4 mM (inactive). In the case of `C=CC(C1=CC(=O)C(OC)=CC1=O)c1ccc(O)cc1` (stereo not drawn), the Kd is reported as > 4 mM (inactive). With `COc1cc2c(cc1OC)C1(O)C(=O)c3ccc(O)c(C(=O)O)c3OC1CO2` (stereo not drawn) the Kd was > 4 mM (inactive). With `Nc1[nH]c(=S)[nH]c(=O)c1-c1ccccc1` the Kd was > 4 mM (inactive). For `CC(=O)Nc1c(C#N)c(C(C)(C)C)cn1C`, the Kd was > 4 mM (inactive). With `Cc1c(C(=O)O)cnn1-c1ccccc1` the Kd was > 4 mM (inactive). `CC(=O)O[C@H]1CCC2(C)C3=C(CCC2C1(C)C)[C@]1(C)CCC(C(C)CCC=C(C)C)[C@@]1(C)CC3` (stereo partly drawn) was tested, and the Kd was > 4 mM (inactive). For `CC(C)CCCC(C)C1CCC2C3C[C@@H](O)[C@@]4(O)C[C@@H](O)CC[C@]4(C)C3CC[C@]12C` (stereo partly drawn), the Kd was > 4 mM (inactive). `CCCNC(CC(=O)Nc1cccnc1)C(=O)O` (stereo not drawn) was tested, and the Kd was > 4 mM (inactive). For `O=C(Nc1ccc2c(c1)OCO2)c1ccc(=O)[nH]n1`, the Kd was > 4 mM (inactive). With `O=C(NCc1cccc(Cl)c1)c1cnccn1` the Kd was > 4 mM (inactive). With `O=C1C=CC(=O)N1c1ccc(N2CCOCC2)cc1` the Kd was > 4 mM (inactive). `Nc1ncnc2c1ncn2[C@@H]1O[C@H](CO)[C@@H](O)[C@H]1O` was tested, and the Kd was > 4 mM (inactive). With `CC(C)(C)P(=O)(O)c1ccccc1` the Kd was > 4 mM (inactive). `Cc1cc(C)c(NC(=O)CN2CCC(O)CC2)c(C)c1` was tested, and the Kd was > 4 mM (inactive). With `COc1ccc(Cc2nccc3cc(OC)c(OC)cc23)cc1OC` the Kd was > 4 mM (inactive). For `O=C1NCC(=O)N2CCc3ccccc3C12` (stereo not drawn), the Kd was > 4 mM (inactive). `O=C(C1CCNCC1)N1CCCCCC1` was tested, and the Kd was > 4 mM (inactive). `CC(C)CNc1cc(=O)n(C)c(=O)n1C` was tested, and the Kd was > 4 mM (inactive). With `Cc1ccccc1-n1c(-c2cccnc2)n[nH]c1=S` the Kd was > 4 mM (inactive). `CC(=O)c1cc2c(cc1O)OC(C)(C)C=C2` was tested, and the Kd was > 4 mM (inactive). With `O=C1CN(C(=O)c2ccccc2)c2ccccc2N1` the Kd was > 4 mM (inactive). `CCCCCC1C(=O)CCC1CC(=O)O` (stereo not drawn) was tested, and the Kd was > 4 mM (inactive). `NC1CN2CCC1CC2` (stereo not drawn) was tested, and the Kd was > 4 mM (inactive). For `O=c1c2ccccc2nc(-c2ccco2)n1-c1nccs1`, the Kd was > 4 mM (inactive). `Cc1nc2ccccc2c(=O)[nH]1` was tested, and the Kd was > 4 mM (inactive). In the case of `Oc1ccccc1N=Cc1cccnc1`, the Kd is reported as > 4 mM (inactive). In the case of `CC(=O)NC(=S)Nc1ccccc1C(N)=O`, the Kd is reported as > 4 mM (inactive).
